Entries after “also recorded” stand apart in the source; their conditions may differ. Like-named read-outs stand apart in the source and are kept apart here.
Tests used:
HIV-1 IIIB strain [1] = assay: HIV-1 IIIB replication in HeLa cells, 24 hours pre-medication; type: cell-based
[2] = system: multi-drug resistant HIV MDR-769 strain; assay: HIV MDR 769 strain replication in HeLa cells, without pre-medication; type: cell-based
HeLa cells = assay: MTT cytotoxicity assay after the HIV replication protocol; type: cell-based, human; settings: MTT cytotoxicity assay
HIV-1 IIIB strain [3] = assay: HIV-1 IIIB replication in HeLa cells, 48 hours pre-medication; type: cell-based; settings: 48 hours pretreatment, read-out: IC50 of inhibition of HIV replication
[4] = system: Y1 mouse adrenal tumor cells; assay: dbcAMP-induced 20á-hydroxyprogesterone synthesis in Y1 cells; type: cell-based
Method: Culture media were then changed and cells were stimulated with 1 mM dbcAMP and the treatment for 24 to 48 hours. […] The synthesis of 20 —OH progesterone and progesterone in Y1 and MA-10 cell media respectively were measured by RIA (Brown et al., 1992). H295R human adrenal tumor cells were seeded in 48-well plates at 10^5 cells/well and incubated for 24 hours. […] At the end of the incubation time period, cells were treated with 1 mM dbcAMP for 48 hours. Cortisol levels in the media were determined by radioimmunoassay as previously described (Amri et al., 1996).

HIV-1 IIIB strain [5] = assay: HIV-1 IIIB replication in HeLa indicator cells (AV-Finder-HIV assay), no pre-medication; type: cell-based; settings: for efficacy in reducing HIV-1 IIIB replication compared to AZT, ddI or 3TC: human cells
[6] = no pre-medication, concentrations up to 1 μM

Cc1cn([C@H]2C[C@H](N=[N+]=[N-])[C@@H](CO)O2)c(=O)[nH]c1=O [AZT]
inhibition of the replication (HIV-1 IIIB strain [1]; at 30 pM): < 30%
effect on HIV MDR 769 strain replication [2]: not effective; also recorded: ineffective
IC50 (HeLa cells): 161 µM
IC50 (HIV-1 IIIB strain [3]): 30 nM

CC1CN(C(=O)C(Cc2c[nH]c3ccccc23)NC(=O)c2ccc([N+](=O)[O-])cc2)CCN1C(=O)C1CC1 (stereo not drawn) [SP010, N-[2-(4-cyclopropanecarbonyl-3-methyl-piperazin-1-yl)-1-(1H-indol-3-yl-methyl)-2-oxo-ethyl]-4-nitro-benzamide]
concentration at the peak of the inhibitory activity (HIV-1 IIIB strain [1]): 0.03 nM
effect on dbcAMP-induced 20á-hydroxyprogesterone production ([4]; Y1 cells): decreased in a dose-dependent manner
potency on cAMP-corticosteroid formation compared to procaine ([4]; even at a concentration as low as 1 μM): as potent as procaine
inhibition at 0.01 µM (HIV-1 IIIB strain [5]; Human immunodeficiency virus 1, IIIB, HeLa, no pre-medication, at 0.01 μM, read-out: strongest inhibition of viral replication): 55.6 ± 2.12%
efficacy in reducing HIV-1 IIIB replication compared to AZT, ddI or 3TC (HIV-1 IIIB strain [5]): efficacy higher than AZT, ddI or 3TC
inhibition of viral replication (HIV-1 IIIB strain [5]; [6]): 40%
potency compared to ddI (HIV-1 IIIB strain [5]; [6]): more potent that ddI
efficacy in inhibiting viral replication compared to ddI (HIV-1 IIIB strain [5]; within the range of 1 nM to 1 μM): higher efficacy than ddI
effect on HIV MDR 769 strain replication [2]: effectively blocked
maximal inhibition of MDR HIV strain replication [2]: 50%
IC50 (HIV-1 IIIB strain [3]; Human immunodeficiency virus 1, IIIB, HeLa): 0.01 nM

CCN(CC)CCNC(=O)c1ccc(N)cc1 [SP100, procainamide]
efficacy on viral replication compared to AZT (HIV-1 IIIB strain [1]): effective but at the same extent as AZT
efficacy in reducing HIV-1 IIIB replication compared to AZT, ddI or 3TC (HIV-1 IIIB strain [5]): efficacy higher than AZT, ddI or 3TC
effect on HIV MDR 769 strain replication [2]: effectively blocked

Nc1ccn([C@@H]2CS[C@H](CO)O2)c(=O)n1 [3TC]
inhibition of HIV-1 IIIB viral replication reached (HIV-1 IIIB strain [5]; no pre-medication, maximal inhibition reached (maximal concentrations)): 90%

O=c1[nH]cnc2c1ncn2[C@H]1CC[C@@H](CO)O1 [ddI]
strongest inhibition of viral replication (HIV-1 IIIB strain [5]; no pre-medication, at 0.01 μM): 26.37±26.11%
IC50 (HeLa cells): 89 µM

Source: patent publication US20060194814A1, “Benzamide compounds” (priority 2003, published 2006)
